Measurements reported in ChEMBL document CHEMBL5537177, “Discovery of Potent Antimalarial Type II Kinase Inhibitors with Selectivity over Human Kinases” (J Med Chem, 2024).

System: HepG2
Experiment: Cytotoxicity against human HepG2 cells assessed as reduction in cell viability incubated for 48 hrs by MTS assay
Format: toxicity, cell-based
Details: hepg2

Compared with `CCN1CCN(Cc2ccc(NC(=O)c3cc(Cl)cc(NC(=O)c4cccnc4)c3)cc2C(F)(F)F)CC1`, `CCN1CCN(Cc2ccc(NC(=O)c3cc(Cl)cc(NC(=O)c4cncnc4)c3)cc2C(F)(F)F)CC1` is 1.7-fold higher in EC50: 10400 nM for the first, 17300 nM for the second.

`CCN1CCN(Cc2ccc(NC(=O)c3cc(Cl)cc(NC(=O)c4cnc(N)nc4)c3)cc2C(F)(F)F)CC1` and `CCN1CCN(Cc2ccc(NC(=O)c3cc(Cl)cc(NC(=O)N4CCN(C)CC4)c3)cc2C(F)(F)F)CC1` are within 1.5-fold of each other in EC50: 19200 nM for the first, 14000 nM for the second.

`CCN1CCN(Cc2ccc(NC(=O)c3ccc(OC)c(NC(=O)c4cncc(-c5cccs5)c4)c3)cc2C(F)(F)F)CC1` and `CCN1CCN(Cc2ccc(NC(=O)c3ccc(F)c(NC(=O)c4cncc(-c5cccs5)c4)c3)cc2C(F)(F)F)CC1` are within 1.5-fold of each other in EC50: 3240 nM for the first, 3170 nM for the second.

`O=C(Nc1cccc(C(F)(F)F)c1)c1cc(Cl)cc(NC(=O)c2cncc(-c3cccs3)c2)c1` showed an EC50 greater than 20000 nM.

System: not listed separately
Experiment: Selectivity index, ratio of EC50 for human MCF7 cells to EC50 for multidrug-resistant Plasmodium falciparum Dd2 at ring stage infected in A+ erythrocytes
Format: toxicity, cell-based
Details: read-out: Ratio EC50

Going from `CCN1CCN(Cc2ccc(NC(=O)c3cc(Cl)cc(NC(=O)c4cccnc4)c3)cc2C(F)(F)F)CC1` to `CCN1CCN(Cc2ccc(NC(=O)c3cc(Cl)cc(NC(=O)c4cncnc4)c3)cc2C(F)(F)F)CC1`, the selectivity ratio falls from 75 to 29.

Going from `CCN1CCN(Cc2ccc(NC(=O)c3cc(Cl)cc(NC(=O)c4cnc(N)nc4)c3)cc2C(F)(F)F)CC1` to `CCN1CCN(Cc2ccc(NC(=O)c3cc(Cl)cc(NC(=O)N4CCN(C)CC4)c3)cc2C(F)(F)F)CC1`, the selectivity ratio falls from 19 to 15.

First: CCN1CCN(Cc2ccc(NC(=O)c3ccc(OC)c(NC(=O)c4cncc(-c5cccs5)c4)c3)cc2C(F)(F)F)CC1
Second: CCN1CCN(Cc2ccc(NC(=O)c3ccc(F)c(NC(=O)c4cncc(-c5cccs5)c4)c3)cc2C(F)(F)F)CC1
The selectivity ratio of the first is lower: 3.3 for the first, 3.9 for the second.

`O=C(Nc1cccc(C(F)(F)F)c1)c1cc(Cl)cc(NC(=O)c2cncc(-c3cccs3)c2)c1` gave a selectivity ratio greater than 18.

System: not listed separately
Experiment: Metabolic stability in mouse liver microsomes assessed as half life
Format: ADME, Liver cells
Details: not given

`CCN1CCN(Cc2ccc(NC(=O)c3cc(Cl)cc(NC(=O)c4cccnc4)c3)cc2C(F)(F)F)CC1` showed a t1/2 of 15.1 min.

System: Plasmodium falciparum
Experiment: Resistance index, ratio of EC50 for multidrug-resistant Plasmodium falciparum Dd2 at ring stage infected in A+ erythrocytes to EC50 for drug-sensitive Plasmodium falciparum 3D7 at ring stage infected in A+ erythrocytes
Format: organism-based
Details: human

In order of falling “Ratio EC50” value:
1. O=C(Nc1cccc(C(F)(F)F)c1)c1cc(Cl)cc(NC(=O)c2cncc(-c3cccs3)c2)c1  2.1
2. CCN1CCN(Cc2ccc(NC(=O)c3cc(Cl)cc(NC(=O)c4cnc(N)nc4)c3)cc2C(F)(F)F)CC1  1.9
3. CCN1CCN(Cc2ccc(NC(=O)c3ccc(OC)c(NC(=O)c4cncc(-c5cccs5)c4)c3)cc2C(F)(F)F)CC1  1.9
4. CCN1CCN(Cc2ccc(NC(=O)c3ccc(F)c(NC(=O)c4cncc(-c5cccs5)c4)c3)cc2C(F)(F)F)CC1  1.7
5. CCN1CCN(Cc2ccc(NC(=O)c3cc(Cl)cc(NC(=O)c4cncnc4)c3)cc2C(F)(F)F)CC1  1.3
6. CCN1CCN(Cc2ccc(NC(=O)c3cc(Cl)cc(NC(=O)c4cccnc4)c3)cc2C(F)(F)F)CC1  1.2
7. CCN1CCN(Cc2ccc(NC(=O)c3cc(Cl)cc(NC(=O)N4CCN(C)CC4)c3)cc2C(F)(F)F)CC1  0.6

System: Plasmodium falciparum
Experiment: Antiplasmodial activity against drug-sensitive Plasmodium falciparum 3D7 at ring stage infected in A+ erythrocytes assessed as parasite growth reduction incubated for 72 hrs by SYBR Green I dye based analysis
Format: functional, organism-based
Details: 3D7, Erythrocyte

In order of rising EC50:
1. CCN1CCN(Cc2ccc(NC(=O)c3cc(Cl)cc(NC(=O)c4cccnc4)c3)cc2C(F)(F)F)CC1  127 nM
2. CCN1CCN(Cc2ccc(NC(=O)c3cc(Cl)cc(NC(=O)c4cnc(N)nc4)c3)cc2C(F)(F)F)CC1  378 nM
3. CCN1CCN(Cc2ccc(NC(=O)c3cc(Cl)cc(NC(=O)c4cncnc4)c3)cc2C(F)(F)F)CC1  395 nM
4. O=C(Nc1cccc(C(F)(F)F)c1)c1cc(Cl)cc(NC(=O)c2cncc(-c3cccs3)c2)c1  541 nM
5. CCN1CCN(Cc2ccc(NC(=O)c3ccc(F)c(NC(=O)c4cncc(-c5cccs5)c4)c3)cc2C(F)(F)F)CC1  763 nM
6. CCN1CCN(Cc2ccc(NC(=O)c3ccc(OC)c(NC(=O)c4cncc(-c5cccs5)c4)c3)cc2C(F)(F)F)CC1  821 nM
7. CCN1CCN(Cc2ccc(NC(=O)c3cc(Cl)cc(NC(=O)N4CCN(C)CC4)c3)cc2C(F)(F)F)CC1  2120 nM

System: MCF7
Experiment: Cytotoxicity against human MCF7 cells assessed as reduction in cell viability incubated for 48 hrs by MTS assay
Format: toxicity, cell-based
Details: mcf7

`CCN1CCN(Cc2ccc(NC(=O)c3cc(Cl)cc(NC(=O)c4cccnc4)c3)cc2C(F)(F)F)CC1` and `CCN1CCN(Cc2ccc(NC(=O)c3cc(Cl)cc(NC(=O)c4cncnc4)c3)cc2C(F)(F)F)CC1` are within 1.5-fold of each other in EC50: 11000 nM for the first, 15300 nM for the second.

`CCN1CCN(Cc2ccc(NC(=O)c3cc(Cl)cc(NC(=O)c4cnc(N)nc4)c3)cc2C(F)(F)F)CC1` and `CCN1CCN(Cc2ccc(NC(=O)c3cc(Cl)cc(NC(=O)N4CCN(C)CC4)c3)cc2C(F)(F)F)CC1` are within 1.5-fold of each other in EC50: 13700 nM for the first, 18800 nM for the second.

`CCN1CCN(Cc2ccc(NC(=O)c3ccc(OC)c(NC(=O)c4cncc(-c5cccs5)c4)c3)cc2C(F)(F)F)CC1` and `CCN1CCN(Cc2ccc(NC(=O)c3ccc(F)c(NC(=O)c4cncc(-c5cccs5)c4)c3)cc2C(F)(F)F)CC1` are within 1.5-fold of each other in EC50: 5060 nM for the first, 5100 nM for the second.

Work on `O=C(Nc1cccc(C(F)(F)F)c1)c1cc(Cl)cc(NC(=O)c2cncc(-c3cccs3)c2)c1` yielded an EC50 greater than 20000 nM.

System: not listed separately
Experiment: Metabolic stability in mouse liver microsomes assessed as intrinsic clearance
Format: ADME, Liver cells
Details: not given

Work on `CCN1CCN(Cc2ccc(NC(=O)c3cc(Cl)cc(NC(=O)c4cccnc4)c3)cc2C(F)(F)F)CC1` yielded an intrinsic clearance of 46 µL/min/mg.

System: not listed separately
Experiment: Selectivity index, ratio of EC50 for human HepG2 cells to EC50 for multidrug-resistant Plasmodium falciparum Dd2 at ring stage infected in A+ erythrocytes
Format: toxicity, cell-based
Details: read-out: Ratio EC50

Going from `CCN1CCN(Cc2ccc(NC(=O)c3cc(Cl)cc(NC(=O)c4cccnc4)c3)cc2C(F)(F)F)CC1` to `CCN1CCN(Cc2ccc(NC(=O)c3cc(Cl)cc(NC(=O)c4cncnc4)c3)cc2C(F)(F)F)CC1`, the selectivity ratio falls from 71 to 33.

Going from `CCN1CCN(Cc2ccc(NC(=O)c3cc(Cl)cc(NC(=O)c4cnc(N)nc4)c3)cc2C(F)(F)F)CC1` to `CCN1CCN(Cc2ccc(NC(=O)c3cc(Cl)cc(NC(=O)N4CCN(C)CC4)c3)cc2C(F)(F)F)CC1`, the selectivity ratio falls from 27 to 11.

First: CCN1CCN(Cc2ccc(NC(=O)c3ccc(OC)c(NC(=O)c4cncc(-c5cccs5)c4)c3)cc2C(F)(F)F)CC1
Second: CCN1CCN(Cc2ccc(NC(=O)c3ccc(F)c(NC(=O)c4cncc(-c5cccs5)c4)c3)cc2C(F)(F)F)CC1
The selectivity ratio of the first is lower: 2.1 for the first, 2.4 for the second.

`O=C(Nc1cccc(C(F)(F)F)c1)c1cc(Cl)cc(NC(=O)c2cncc(-c3cccs3)c2)c1` gave a selectivity ratio greater than 18.

System: Plasmodium falciparum
Experiment: Antiplasmodial activity against multidrug-resistant Plasmodium falciparum Dd2 at ring stage infected in A+ erythrocytes assessed as parasite growth reduction incubated for 72 hrs by SYBR Green I dye based analysis
Format: functional, organism-based
Details: Dd2, Erythrocyte

In order of rising EC50:
1. CCN1CCN(Cc2ccc(NC(=O)c3cc(Cl)cc(NC(=O)c4cccnc4)c3)cc2C(F)(F)F)CC1  147 nM
2. CCN1CCN(Cc2ccc(NC(=O)c3cc(Cl)cc(NC(=O)c4cncnc4)c3)cc2C(F)(F)F)CC1  520 nM
3. CCN1CCN(Cc2ccc(NC(=O)c3cc(Cl)cc(NC(=O)c4cnc(N)nc4)c3)cc2C(F)(F)F)CC1  709 nM
4. O=C(Nc1cccc(C(F)(F)F)c1)c1cc(Cl)cc(NC(=O)c2cncc(-c3cccs3)c2)c1  1110 nM
5. CCN1CCN(Cc2ccc(NC(=O)c3cc(Cl)cc(NC(=O)N4CCN(C)CC4)c3)cc2C(F)(F)F)CC1  1230 nM
6. CCN1CCN(Cc2ccc(NC(=O)c3ccc(F)c(NC(=O)c4cncc(-c5cccs5)c4)c3)cc2C(F)(F)F)CC1  1320 nM
7. CCN1CCN(Cc2ccc(NC(=O)c3ccc(OC)c(NC(=O)c4cncc(-c5cccs5)c4)c3)cc2C(F)(F)F)CC1  1540 nM
